Measured values published in patent publication US10155802B2, “Locally-active anticoagulants and anti-inflammatory agents” (priority 2011, dated 2018).
Where “and” joins values, the source holds several entries; their conditions need not be identical. Equal values may be shown once. Entries after “also recorded” stand apart in the source; their conditions may differ.

Columns and labels:
Human α-thrombin = target: T1, Human α-thrombin (Homo sapiens, UniProt P00734); experiment: Inhibition of thrombin-catalyzed hydrolysis of chromogenic substrate S-2366 (inhibition constant Ki); type: biochemical; settings: for Ki: T = 37° C., enzyme kinetics, chromogenic substrate
T1 construct: Human α-thrombin was purchased from Haemotologic Technologies, Inc., VT, USA; purchased Haemotologic Technologies, Inc., VT, USA

thrombin = thrombin (Homo sapiens, UniProt P00734); experiment: Cleavage of thrombin-sensitive peptides catalyzed by thrombin, followed by HPLC; type: biochemical; set-up: rapidly converts prothrombin into the ultimate protease thrombin; settings: 75 μM peptide, 23 nM thrombin, pH 7.6, 37° C.
[1] = system: fresh blood withdrawn from rats with venous thrombosis; experiment: Clotting time (aPTT) of fresh blood withdrawn from treated rats; type: in vivo; settings: rat, 0.2 mg/kg bolus + 0.00433 mg/kg/min infusion; 20 minutes after administration versus before
Procedure: FIG. 23 illustrates the clotting times (aPTT) determined for fresh blood withdrawn from rats with venous thrombosis at three time points, the first before drug administration and vessel injury, the second at 20 minutes after FeCl3 application and the third 60 minutes following injection of the respective thrombin inhibitors. Clotting times (aPTT) are shown for different rats administered with each thrombin inhibitor, ZIP4 for MH2-wZIP4, ZIP5 for MH2-wZIP5 and T218 for BRI-T218. Dosage levels for every compound were 0.2 mg/kg for the single-bolus injection and 0.00433 mg/kg/min for the maintenance infusion,
Terminal blood samples were analyzed for aPTT within 15 to 30 minutes of collection using a Coag DX Analyzer with aPTT citrate cartridges (IDEXX Laboratories, Westbrook, Me., USA).

[2] = system: FeCl3-induced arterial thrombosis (carotid artery); experiment: FeCl3-induced arterial model of thrombosis in rats (time to occlusion); type: in vivo; settings: rat, single bolus 0.2 mg/kg plus maintenance infusion 0.00433 mg/kg/min
Procedure: Male Sprague-Dawley rats (250-310 g; Charles River Laboratories, St-Constant, QC, Canada) were acclimated for at least 3 days prior to the start of the study. Animals were housed in microisolator cages and were kept on a 12-hr light/dark cycle with constant temperature and humidity. Food and water were provided ad libitum. Various anti-thrombotic agents and peptides of this invention were dissolved in saline (0.9% sodium chloride) prior to use.
The FeCl3-induced arterial model of thrombosis in rats was also generated as described by Wang and Xu (Wang 2005) with some modifications (Couture 2011). Briefly, rats were anesthetized with a 2.5% isoflurane/oxygen mixture and placed on a heat source (35-37° C.). An incision was made over the right carotid artery, and a segment of the artery was exposed via blunt dissection. A Doppler flow probe (Model MA1PRB, Transonic System Inc., Ithaca, N.Y., USA) connected to a perivascular flow module (TS420, Transonic System Inc., Ithaca, N.Y., USA) was then attached to the carotid artery to monitor blood flow. Data were collected and analyzed using the MP100 Biopac™ Systems (Biopac Systems, Santa Barbara, Calif., USA), and the AcgKnowledge™ software (Biopac Systems, Santa Barbara, Calif., USA), respectively. Baseline blood flow was recorded for a minimum of 15 minutes until readings stabilized. Aquasonic 100 gel (Parker Laboratories, Inc., Fairfield, N.J., USA) was added to help conductivity and any fluid accumulating at the site of surgery was removed during data sampling without touching the probe. […] One minute after drug administration, a piece of filter paper (Gel Blot Paper, GB003, Whatman, Piscataway, N.J., USA; 7 mm diameter) saturated with 20% FeCl3 (EMD Chemicals Inc., Gibbstown, N.J., USA) was placed on the exposed surface of the carotid artery and incubated for 3.5 minutes. During the application of FeCl3, the neck region was covered with aluminum foil. At the end of the incubation period, the filter paper was removed and the exposed carotid was covered with a saline-soaked gauze. Time to occlusion was defined as the time from the application of FeCl3 until blood flow decreased to zero. […] Preparing and processing each animal took approximately 1 hr and 7 animals were treated each day. Control animals were always included when the other treatments were being administered. For this reason, the number of animals in the control group is higher than that of the treated-groups.
Statistical analysis was conducted using GraphPad™ Prism (GraphPad Software Inc., San Diego Calif., USA). Data were analyzed using one-way ANOVA with post-hoc Bonferroni correction for multiple comparisons. The relationship between thrombus weight and thrombus volume was determined by linear regression. […]

Compound	reduction of Ki as compared to BRI-T207 (Human α-thrombin)	reduction of Ki as compared to MH2-wZIP4 (Human α-thrombin)	Ki (Human α-thrombin)	cleavage by thrombin (thrombin)	clotting time (aPTT), systemic anticoagulant effect [1]	anti-thrombotic efficacy in arterial model [2]
CC[C@H](C)[C@H](NC(=O)[C@H](CCC(=O)O)NC(=O)[C@H](CCC(=O)O)NC(=O)[C@H](Cc1ccccc1)NC(=O)[C@H](CC(=O)O)NC(=O)CNC(=O)[C@H](CCC(=O)O)NC(=O)[C@@H](NC(=O)[C@H](Cc1c[nH]c2ccccc12)NC(=O)[C@@H](NC(=O)[C@H](Cc1c[nH]c2ccccc12)NC(=O)[C@@H](NC(=O)[C@H](CCCCN)NC(=O)[C@@H](NC(=O)[C@H](C)NC(=O)[C@H](CC(=O)O)NC(=O)[C@H](CC(=O)O)NC(=O)[C@H](Cc1c[nH]c2ccccc12)NC(=O)[C@@H](NC(=O)[C@H](Cc1c[nH]c2ccccc12)NC(=O)[C@H](CCC(=O)O)NC(=O)CNC(=O)[C@H](CC(=O)O)NC(=O)[C@@H](NC(=O)[C@H](Cc1ccccc1)NC(=O)[C@H](CCCNC(=N)N)NC(=O)[C@@H]1CCCN1C(=O)[C@H](CCCNC(=N)N)NC(=O)[C@@H]1CCCN1C(=O)[C@H](N)Cc1ccccc1)[C@@H](C)O)[C@@H](C)O)[C@@H](C)O)[C@@H](C)O)[C@@H](C)O)[C@@H](C)O)C(=O)N1CCC[C@H]1C(=O)N[C@@H](CCC(=O)O)C(=O)N[C@@H](CCC(=O)O)C(=O)N[C@@H](Cc1ccc(O)cc1)C(=O)N[C@@H](CC(C)C)C(=O)O [BRI-T208]	about 13 fold	approximately 5 fold	~28 nM and 28 nM	significantly more resistant to thrombin cleavage than BRI-T218	–	–
CC[C@H](C)[C@H](NC(=O)[C@H](CCCNC(=N)N)NC(=O)[C@@H]1CCCN1C(=O)[C@H](N)Cc1ccccc1)C(=O)N[C@@H](CCCNC(=N)N)C(=O)N[C@@H](Cc1ccccc1)C(=O)N[C@H](C(=O)N[C@@H](CC(=O)O)C(=O)NCC(=O)N[C@@H](CCC(=O)O)C(=O)N[C@@H](Cc1c[nH]c2ccccc12)C(=O)N[C@H](C(=O)N[C@@H](Cc1c[nH]c2ccccc12)C(=O)N[C@@H](CC(=O)O)C(=O)N[C@@H](CC(=O)O)C(=O)N[C@@H](C)C(=O)N[C@H](C(=O)N[C@@H](CCCCN)C(=O)N[C@H](C(=O)N[C@@H](Cc1c[nH]c2ccccc12)C(=O)N[C@H](C(=O)N[C@@H](Cc1c[nH]c2ccccc12)C(=O)N[C@H](C(=O)N[C@@H](CCC(=O)O)C(=O)NCC(=O)N[C@@H](CC(=O)O)C(=O)N[C@@H](Cc1ccccc1)C(=O)N[C@@H](CCC(=O)O)C(=O)N[C@@H](CCC(=O)O)C(=O)N[C@H](C(=O)N1CCC[C@H]1C(=O)N[C@@H](CCC(=O)O)C(=O)N[C@@H](CCC(=O)O)C(=O)N[C@@H](Cc1ccc(O)cc1)C(=O)N[C@@H](CC(C)C)C(=O)O)[C@@H](C)CC)[C@@H](C)O)[C@@H](C)O)[C@@H](C)O)[C@@H](C)O)[C@@H](C)O)[C@@H](C)O [BRI-T218]	–	–	~14 nM and 14 nM	completely converted to the cleavage products within two hours; also recorded: almost completion of the cleavage reaction after 2 hours of incubation	only a slight prolongation of the clotting time (aPTT)	appears to restore the anti-thrombotic activity; also recorded: increases the efficacy
